Data on five compounds can be found in patent publication US4980349A, “Sulphonamides derived from diarylmethanes, the processes for preparing them and pharmaceutical compositions containing them” (SANOFI, priority 1986, dated 1990).

“Also recorded” adds a separate entry of the source. Read-outs that look alike come from different tables or passages of the source.

The subject of experiment [1] is rat hind foot carragheenin-induced oedema. In words: Carragheenin-induced oedema test. The settings on record: 3 h, read-out: percentage inhibition of the inflammation; for change in vivo at 25 mg/kg: 25 mg/kg oral; for change in vivo at 50 mg/kg: 50 mg/kg oral; for change in vivo at 100 mg/kg: 100 mg/kg oral. In kind it is in vivo.
The test system of experiment [2] is foreign-body (sponge) granuloma in rats. In words: Experimental granuloma induced by foreign body, histological study. It counts as in vivo, Wistar rats. The settings on record: for histological study of the granuloma: 8 days, Table XI; for histological study of the granuloma (inflammatory connective / granulation tissue): second experiment, day 8, Table XIa.
The test system of experiment [3] is thromboxane synthetase. Description: TXB2 production in human platelet suspension (thromboxane synthetase). It counts as cell-based. The settings on record: human platelets, arachidonic acid 5 μg/ml, 37° C., read-out: IC50, inhibition of the production of TXB2. The protocol:
The platelets are incubated with arachidonic acid (5 μg/ml) in the presence of increasing doses of test products (10^-6l M to 5×10^-5 M). Platelets stimulated by arachidonic acid (AA) manufacture a large amount of thromboxane A2 (TXA2), which can be measured radioimmunologically in the form of a stable metabolite TXB2.
The assay of the amount of TXB2 in the medium is performed after a 1- to 15- minute incubation at 37° C., the measurements being made in comparison with a control suspension which has not been incubated with the test products.
Results: These are expressed as IC50, that is to say as the concentration of the test product which permits 50% inhibition of the production of TXB2.

Experiment [4] concerns thromboxane synthetase. In words: TXB2 production in human glomeruli (renal preparation model). The following applies: arachidonic acid 5 ug/ml. It counts as cell-based. The protocol:
(§1) Human glomeruli synthesize both thromboxanes, via thromboxane synthetase, and prostaglandins, via prostacyclin synthetase. The experiment consists in stimulating glomerular cells with arachidonic acid (5 ug/ml) and in assaying radioimmunologically the amount of thromboxane B2 (TXB2) and prostacyclin (PGI2) produced in the presence of increasing concentrations of test products (10^-6 M to 5×10^-5 M).
(§2) As for the previous model, the results are expressed as IC50 in comparison with a control suspension.

The next experiment has as its system prostacyclin synthetase. Description: PGI2 production in human glomeruli (renal preparation model). It counts as cell-based. The following applies: arachidonic acid 5 ug/ml. The protocol:
as §1, §2

The test system of experiment [5] is rat hind foot kaolin-induced arthritis. In words: Kaolin-induced arthritis test, second experiment, acute phase (volume of the foot at the 8th hour). It counts as in vivo. The settings on record: po, 8 h, Table IXa; for change in vivo at 25 mg/kg / change in vivo at 50 mg/kg / change in vivo at 100 mg/kg: 8th hour, read-out: percentage significant decrease in the volume of the treated foot; for ED50: foot volume, read-out: 50% active dose. The protocol:
(§3) The […] of 0.05 ml of a sterile 10% strength suspension of kaolin into the metatarsal flexor sheath of the hind foot of a rat initially induces an oedematous reaction. An inflammatory arthritis then forms.
The early oedematous reaction appears from the first hour, and reaches its maximum between the fourth hour and the sixth hour. This is the manifestation of interest. The assessment of the volume of the foot enables the action of substances on the oedematous reaction to be studied. The measurements are carried out using a Giono and Chevilard plethysmometer.
(§4) The test products are administered orally (stomach tube) one hour before the injection of the kaolin.
(§5) In a second experiment, a more elaborate study was performed in order to ascertain the effect of the products, on the one hand on the acute phase of the inflammatory reaction (measured by the volume of the foot at the 8th hour), and on the other hand on the chronic phase (activity measured by the weight of the foot at the 12th hour).
As in the previous experiment, ketoprofen was used as the comparative product:
The results are expressed as a percentage significant decrease in the volume of the treated foot compared with the controls.

Experiment [6] has the same test system. In words: Kaolin-induced arthritis test, second experiment, chronic phase (weight of the foot at the 12th hour). In kind it is in vivo. The settings on record: po, 12 h, Table IXb; for change in vivo at 25 mg/kg / change in vivo at 50 mg/kg / change in vivo at 100 mg/kg: 12th hour, read-out: percentage significant decrease in the weight of the treated foot; for ED50: foot weight, read-out: 50% active dose. The protocol:
as §3, §4, §5
As in the previous experiment, ketoprofen was used as the comparative product: […]

Experiment [7] relates to foreign-body (sponge) granuloma in rats. Description: Experimental granuloma induced by foreign body, weight of the granulomas. The following applies: Rattus norvegicus, po, 240 h, 10 days after implantation, Table XIb, read-out: decrease in the weight of the granulomas. In kind it is in vivo, Wistar rats. As to the method: This test consists in studying the subacute cellular phase which is developed in the 8 days which follow the implantation of a foreign body, a sponge of non-resorbable plastic, in the dorsal subcutaneous connective tissue in rats.
The animals used are Wistar rats weighing 120-140 g and of the same origin, maintained under the same conditions of housing throughout the treatment (8 days).
The compounds of the invention are administered orally, in a gum suspension, in the morning in a fasted state, using an oesophageal tube.
In this experiment, on the one hand a histological study of the granulomas is performed by sampling on day 8 (results recorded in Table XIa), and on the other hand a study of the weight of the granulomas was performed 10 days after the implantation (results recorded in Table XIb).

Experiment [8] has as its system biosynthesis of leukotrienes C4 (LTC4), human polymorphonuclear leukocytes. Description: LTC4 production in human polymorphonuclear leukocytes. The following applies: Leukocyte, 0.25 h, ionophore A 23187 5 μM, 15 min, 37° C., read-out: IC50, inhibition of the production of LTC4. In kind it is cell-based. As to the method: Human polymorphonuclear Leukocytes are stimulated by calcium ionophore A 23187 (Calbiochem, 5 μM), in the presence or absence of the test products.
After 15 minutes' incubation at 37° C., assay of the leukotrienes C4 (LTC4) is performed radioimmunologically.
The results are expressed as IC50, the concentration producing 50% inhibition of the production of LTC4, by comparison with a control suspension which has not been incubated in the presence of the test products.

A word on the IC50: it is the concentration needed to halve the response being measured. As for `O=C(O)CCCCCCCCCCNS(=O)(=O)c1ccc(Cl)cc1C(=O)c1ccccc1` [Compound 1572, 11-(2-benzoyl-4-chlorobenzenesulphonamido)undecanoic acid], in experiment [1] (first experiment, Table X), the change in vivo at 25 mg/kg is -18%. For the same compound, the change in vivo at 50 mg/kg in experiment [1] (first experiment, Table X) was -25%. For the same compound, in [1] (first experiment, Table X), the change in vivo at 100 mg/kg was -49%. For the same compound, the results for the “histological study of the granuloma” value in experiment [2] (50 mg/kg oral) and in [2] (100 mg/kg oral) were “anti-inflammatory activity is exhibited” and “distinct”, respectively. In addition, the IC50 with thromboxane synthetase [3] was determined as 12 µM; in the experiment with thromboxane synthetase [4] it was 7 µM; in the experiment on prostacyclin synthetase, 100 µM.

Regarding `O=C(O)CCCCCCCCCCNS(=O)(=O)c1ccc(Cl)cc1C(=O)c1ccccc1Cl` [Compound 1574, 11-[2-(2-chlorobenzoyl)-4-chlorobenzenesulphonamido]undecanoic acid], the change in vivo at 25 mg/kg in experiment [5] is -60 ± 6%; in experiment [6], -58 ± 5%; in [1] (second experiment, Table Xa), -40%; in experiment [7], -48%. Moreover, the change in vivo at 50 mg/kg in experiment [5] was -65 ± 6%; in experiment [6], -60 ± 5%; in [1] (second experiment, Table Xa) it was -43%; in experiment [7], -50%. In addition, the change in vivo at 100 mg/kg in experiment [5] is -68 ± 5%; in [6], -60 ± 5%; in experiment [1] (second experiment, Table Xa), -45%; in [7], -55%. The ED50 in experiment [5] and in experiment [6] was 25 mg/kg each time. The “histological study of the granuloma (inflammatory connective / granulation tissue)” value in [2] was “very distinct rarefaction”. Moreover, the IC50 in the experiment on thromboxane synthetase [3] was 8 µM; with thromboxane synthetase [4] it was 5 µM; in the experiment with prostacyclin synthetase, 100 µM; in experiment [8], 3 µM.

For `O=C(O)CCCCCCCCCCCNS(=O)(=O)c1ccc(Cl)c(C(=O)c2ccccc2)c1` [Compound 1736, 12-(3-benzoyl-4-chlorobenzenesulphonamido)dodecanoic acid], the change in vivo at 50 mg/kg in [5] is -50 ± 5%; in experiment [6] it was -55 ± 5%; in [1] (second experiment, Table Xa) it was -48%; in experiment [7] it was -52%. Moreover, the change in vivo at 100 mg/kg was -55 ± 5% in experiment [5]; -58 ± 5% in [6]; -55% in experiment [1] (second experiment, Table Xa); -55% in experiment [7]. Further, the ED50 in experiment [5] and in [6] was 50 mg/kg in each case. For the same compound, the change in vivo at 25 mg/kg was -45 ± 5% in [6]; -45% in experiment [1] (second experiment, Table Xa); -48% in experiment [7]. Moreover, in experiment [2], the “histological study of the granuloma (inflammatory connective / granulation tissue)” value is listed as “Very distinct slowing in the formation”. The IC50 was 6.2 µM in the experiment with thromboxane synthetase [3], 2.6 µM in the experiment with thromboxane synthetase [4], over 50 µM with prostacyclin synthetase and 3 µM in experiment [8].

With `O=C(O)CCCCCCCCCCNS(=O)(=O)c1ccc(Cl)cc1C(O)c1ccccc1Cl` (centres unmarked) [Compound 1796], the change in vivo at 25 mg/kg is -50 ± 5% in [5]; -50 ± 5% in [6]; -45% in experiment [1] (second experiment, Table Xa); -50% in experiment [7]. In addition, the change in vivo at 50 mg/kg is -55 ± 5% in [5]; -52 ± 5% in experiment [6]; -48% in [1] (second experiment, Table Xa); -55% in experiment [7]. Further, the change in vivo at 100 mg/kg in experiment [5] was -60 ± 5%; in experiment [6], -58 ± 5%; in experiment [1] (second experiment, Table Xa), -55%; in experiment [7], -60%. The ED50 in experiment [5] and in experiment [6] was 25 mg/kg each time. Besides, in experiment [2], the “histological study of the granuloma (inflammatory connective / granulation tissue)” value is “only slightly inflammatory”. For the same compound, the IC50 in the experiment on thromboxane synthetase [3] is 7.8 µM; in the experiment on thromboxane synthetase [4], 3.2 µM; in the experiment on prostacyclin synthetase it was 50 µM; in experiment [8] it was 1.7 µM.

Take `O=C(O)CCCCCCCCCCNS(=O)(=O)c1ccc(Cl)cc1Cc1ccccc1Cl` [Compound 1797]: the change in vivo at 25 mg/kg in experiment [5] was -50 ± 5%; in experiment [6], -50 ± 5%; in experiment [1] (second experiment, Table Xa) it was -45%; in experiment [7] it was -50%. Also, the change in vivo at 50 mg/kg in experiment [5] is -55 ± 5%; in [6], -58 ± 5%; in [1] (second experiment, Table Xa) it was -48%; in experiment [7], -55%. Moreover, the change in vivo at 100 mg/kg in [5] was -60 ± 5%; in experiment [6] it was -60 ± 5%; in experiment [1] (second experiment, Table Xa), -55%; in experiment [7] it was -60%. Also, the ED50 in experiment [5] and in experiment [6] was 25 mg/kg each time. Besides, in experiment [2], the “histological study of the granuloma (inflammatory connective / granulation tissue)” value is “Granuloma poorly developed; also recorded: slightly inflammatory”. The IC50 in the experiment on thromboxane synthetase [3] is 5 µM; with thromboxane synthetase [4] it was 4.4 µM; in the experiment with prostacyclin synthetase it was over 50 µM; in experiment [8], 1 µM.
